Experiments:
[1] = target: T1, recombinant human cathepsin E (Homo sapiens, UniProt P14091); experiment: Cathepsin E fluorescent substrate kinetic assay; type: biochemical; settings: pH 4.5, substrate MR121-CKLVFFAEDW
T1 construct: purchased R&D Systems
T1 sequence (P14091 54-396): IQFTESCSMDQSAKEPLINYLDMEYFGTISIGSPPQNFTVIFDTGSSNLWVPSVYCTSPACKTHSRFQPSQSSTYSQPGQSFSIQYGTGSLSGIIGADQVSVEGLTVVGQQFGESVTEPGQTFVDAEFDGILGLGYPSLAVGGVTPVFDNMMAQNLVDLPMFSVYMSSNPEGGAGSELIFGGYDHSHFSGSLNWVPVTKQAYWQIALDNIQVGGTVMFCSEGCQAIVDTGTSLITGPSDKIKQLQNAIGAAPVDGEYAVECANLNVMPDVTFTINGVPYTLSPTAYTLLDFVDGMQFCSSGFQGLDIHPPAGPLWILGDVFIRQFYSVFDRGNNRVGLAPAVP
From the text: Cathepsin D and Cathepsin E Fluorescent Substrate Kinetic Assays
The MR121 fluorescence assays described below are based on the fact that MR121 forms a non-fluorescent ground state complex with tryptophan. In solution this formation occurs at millimolar concentrations of tryptophan. The mechanism can be used to design a generic biochemical assay for proteases. A substrate peptide is labeled at the N-terminus with tryptophan and at the C-terminus with the fluorophore MR121 (for cathepsin D the 10 amino acid peptide WTSVLMAAPC-MR121 was used; for cathepsin E, MR121-CKLVFFAEDW was used). In absence of protease activity, the substrates remain intact and the MR121 fluorescence is reduced by the high local Trp-concentration. If the substrates are cleaved by the enzymes the MR121 fluorescence is recovered.
The fluorescent substrate cathepsin D and cathepsin E kinetic assays were performed at room temperature in 384-well microtiter plates (black with clear flat bottom, non-binding surface plates from Corning) in a final volume of 51 μl. The test compounds were serially diluted in DMSO (15 concentrations, ⅓ dilution steps) and 1 μl of diluted compounds were mixed for 10 min with 40 μl of cathepsin D (from human liver, Calbiochem) diluted in assay buffer (100 mM sodium acetate, 0.05% BSA, pH 5.5; final concentration:200 nM) or with 40 μl of recombinant human cathepsin E (R&D Systems) diluted in assay buffer (100 mM sodium acetate, 0.05% BSA, pH 4.5; final concentration:0.01 nM). After addition of 10 μl of the cathepsin D substrate WTSVLMAAPC-MR121 diluted in cathepsin D assay buffer (final concentration:300 nM) or 10 μl of the cathepsin E substrate MR121-CKLVFFAEDW diluted in cathepsin E assay buffer (final concentration:300 nM), the plates were strongly shaken for 2 minutes. The enzymatic reaction was followed in a plate: vision reader (Perkin Elmer) (excitation wavelength:630 nm; emission:695 nm) for at least 30 minutes in a kinetic measurement detecting an increase of MR121 fluorescence during the reaction time. The slope in the linear range of the kinetic was calculated and the IC50 of the test compounds were determined using a four parameter equation for curve fitting.

Aβ40 in brain = experiment: Lowering of Aβ40 in brain of wild-type mice; type: in vivo; settings: brain Aβ40 as % of control (vehicle group), 30 mg/kg per os, mouse, after 4 h
Protocol: Lowering of Aβ40 in Brain of Wild-Type Mice:
Animals and Housing Conditions.
Animals were maintained in a 12/12 h light/dark cycle, with lights starting at 6 a.m., and experiments were conducted during the light phase. Animal housing and experimental procedures were in line with ethical and legal guidelines and were authorized by local veterinary authorities.
Female C57B1/6J mice were treated with a dose of 30 mg/kg of the compounds, 3-4 animals per treatment group. The test compound was dissolved in 5% EtOH, 10% Solutol, and was applied per os at 10 mL/kg. After 4 h, the animals were sacrificed and brain and plasma were collected. The brain was cut into halves and immediately frozen on dry ice. Brain was used for measurement of Aβ40 and plasma was used for determination of compound exposure. […] Brain tissue was homogenized in 2% DEA buffer in a Roche MagnaLyser (20″, 4000 rpm) and subsequently centrifuged for 1 h at 100000 g. DEA was reduced to 0.2% in 50 mM NaCl and one-half of the DEA lysate was passed over an Oasis Solid phase extraction plate (Waters; cat. no. 186000679), which had been activated with MeOH and equilibrated in dH2O (1 mL each). After washes in 10% and 30% MeOH (1 mL each), the Aβ-peptides were eluted in 0.8 mL of 2% NH4OH in 90% MeOH. The eluate was dried over a N2 flow, and the dried sample was reconstituted in 30 μL of AlphaLISA assay buffer. Aβ40 was determined by an AlphaLISA assay (Perkin-Elmer). In a white 96-well, half area microplate (Perkin-Elmer cat. no. 6005561), 20 μL of the reconstituted sample were mixed with 5 μL of biotinylated BAP-24 (specific for C-terminus of Aβ40) (Brockhaus, M.; Grunberg, J.; Rohrig, S.; Loetscher, H.; Wittenburg, N.; Baumeister, R.; Jacobsen, H.; Haass, C. Caspasemediated cleavage is not required for the activity of presenilins in amyloidogenesis and NOTCH signaling. NeuroReport 1998, 9, 1481-1486) stock=4.4 mg/mL, f.c.5.5 μg/mL), and 5 μL 252Q6 acceptor beads (252Q6 antibody, Invitrogen AMB0062) had been previously conjugated with AlphaLISA Acceptor beads (Perkin-Elmer cat. no. 6772002); final dilution 1:500). The mix was incubated for 1 h at RT in the dark. Then 20 μL of Streptavin-coated Donor Beads (Perkin-Elmer cat. no. 6760002, final dilution 1:125) were added and this final mix was incubated in the dark for another 30 min at RT before RFU was measured in an AlphaScreen Reader (Perkin-Elmer Envision 2104). The value obtained for Ap40 in the treated animals was related to the value in the vehicle group and is given in %. Alternatively a commercial ELISA was used for Aβ40 determination (Wako ELISA: (“Human/Rat β Amyloid (40) ELISA kit Wako II”; cat nr. 294-64701) following the manufacture's instruction. Also here the Aβ-lowering efficacy was calculated as percentage of the vehicle group.

| IC50 [1] [µM] | Structure (SMILES) | in vivo effect (Aβ40 in brain) |
| --- | --- | --- |
| 78 | CN=[S@@]1(=O)C[C@@](C)(c2cc(-c3cc(-c4cnc(OCC(F)F)cn4)no3)ccc2F)N=C(N)C1(C)C [Example 5, (1R,3R)-5-amino-3-(5-(3-(5-(2,2-difluoroethoxy)pyrazin-2-yl)isoxazol-5-yl)-2-fluorophenyl)-3,6,6-trimethyl-1-(methylimino)-3,6-dihydro-2H-1,4-thiazine 1-oxide 2,2,2-trifluoroacetate] | A (A = less than 60% of control @ 30 mg/kg mouse) |
| 79 | CN=[S@@]1(=O)C[C@@](C)(c2cc(-c3cc(-c4ncc(Cl)cn4)no3)ccc2F)N=C(N)C1(C)C [Example 6, (1R,3R)-5-amino-3-(5-(3-(5-chloropyrimidin-2-yl)isoxazol-5-yl)-2-fluorophenyl)-3,6,6-trimethyl-1-(methylimino)-3,6-dihydro-2H-1,4-thiazine 1-oxide 2,2,2-trifluoroacetate] | A (A = less than 60% of control @ 30 mg/kg mouse) |
| 182 | CN=[S@@]1(=O)C[C@@](C)(c2cc(-c3cc(-c4cnc(OC)cn4)no3)ccc2F)N=C(N)C1(C)C [Example 7, (1R,3R)-5-amino-3-(2-fluoro-5-(3-(5-methoxypyrazin-2-yl)isoxazol-5-yl)phenyl)-3,6,6-trimethyl-1-(methylimino)-3,6-dihydro-2H-1,4-thiazine 1-oxide 2,2,2-trifluoroacetate] | B (B = less than 90% of control @ 30 mg/kg mouse) |
| 167 | [2H]C([2H])([2H])N=[S@@]1(=O)C[C@@](C)(c2cc(-c3cc(-c4cnc(OC)cn4)no3)ccc2F)N=C(N)C1(C)C [Example 24, (1R,3R)-3-[2-fluoro-5-[3-(5-methoxypyrazin-2-yl)isoxazol-5-yl]phenyl]-3,6,6-rimethyl-1-oxo-1-(trideuteriomethylimino)-2H-1,4-thiazin-5-amine 2,2,2-trifluoroacetate] | A (A = less than 60% of control @ 30 mg/kg mouse) |
